Measured values reported in patent US11801266B2, “Methods of using anti-MIR126 compounds” (CITY OF HOPE, priority 2019, dated 2023).

Legend:
CML CD34+ cells = assay: MAPK/ERK, BCL-2 and apoptosis in NIL-treated CML CD34+ cells; type: cell-based, human
Protocol: After transduction performed as above, GFP+ cells selected at 48 h were exposed to NIL (2 μM and 5 μM, Novartis) for another 72 h, and analyzed using assays for cell growth, apoptosis, cell cycle, CFC and CFC replating. […] Cell growth was measured by Lumino Glo (Promega). Apoptosis was measured by labeling cells with Annexin V-PE or FITC or APC and 4, 6-diamidino-2-phenylindole (DAPI) (all from BD-PharMingen, San Diego, Calif.) and analyzed by flow cytometry. […] Cells were also exposed to EdU (C10640, Invitrogen) for 2 h and EdU staining was analyzed according to the manufacturer's protocol. Cell proliferation was also measured by CFSE staining (Molecular probes) based on the manufacturer's protocol. For CFC, Lin-CD34+CD38− cells cultured with or without NIL (5 μM) were plated in methylcellulose progenitor culture, and burst-forming unit-erythroid and colony-forming unit-granulocyte and macrophage cells were counted after 14 days. Colony replating assays were performed by collecting and pooling colonies from primary CFC assays and plating 10,000 cells in secondary CFC assays.
(§1) Proteins were resolved on 10% sodium dodecyl sulfate-polyacrylamide gel electrophoresis (SDS-PAGE) gels and transferred to nitrocellulose membrane. Membranes were sequentially reprobed with primary and secondary antibodies. […] Horseradish peroxidase-conjugated secondary antibodies were from Jackson ImmunoResearch Laboratories (Westgrove, Pa.). Antibody detection was performed using the Superfemto kit (Pierce Biotechnology, Rockford, Ill.). Protein levels were determined by densitometry using Image-Quant software (Amersham Pharmacia Biotech, Piscataway, N.J.).

[1] = system: BCR-ABL+ primary CD34+ and/or K562 cells; type: cell-based, human
Protocol: Nuclei were counterstained with DAPI.
as §1

human CML HSCs = assay: NIL treatment of human CML HSCs: miR-126, PIK3R2, SPRED1 expression and cell cycle; type: cell-based
Protocol: After transduction performed as above, GFP+ cells selected at 48 h were exposed to NIL (2 μM and 5 μM, Novartis) for another 72 h, and analyzed using assays for cell growth, apoptosis, cell cycle, CFC and CFC replating. Human HSCs and mouse LT-HSCs were also treated with CpG-miR-126 inhibitor or CpG-scrRNA (500 nM), with or without NIL (5 μM), for 72 h and analyzed for cell growth, apoptosis, cell cycle and CFC. Human CML HSCs co-cultured with control or miR-126 KD HUVECs and mouse CML LT-HSCs co-cultured with control or miR-126 KD ECs for 96 h, with or without NIL (5 μM), were also analyzed for cell growth, apoptosis, cell cycle and CFC. Cell growth was measured by Lumino Glo (Promega). Apoptosis was measured by labeling cells with Annexin V-PE or FITC or APC and 4, 6-diamidino-2-phenylindole (DAPI) (all from BD-PharMingen, San Diego, Calif.) and analyzed by flow cytometry. Cell cycle was analyzed by Ki-67-Alexa Fluor 647 (B56, BD) and DAPI labeling based on the manufacturer's protocol. Cells were also exposed to EdU (C10640, Invitrogen) for 2 h and EdU staining was analyzed according to the manufacturer's protocol. Cell proliferation was also measured by CFSE staining (Molecular probes) based on the manufacturer's protocol. For CFC, Lin-CD34+CD38− cells cultured with or without NIL (5 μM) were plated in methylcellulose progenitor culture, and burst-forming unit-erythroid and colony-forming unit-granulocyte and macrophage cells were counted after 14 days. […]
To measure the miRNA and mRNA expression, total RNA was extracted using the miRNeasy Mini Kit (Qiagen, Valencia, Calif.). […] BCR-ABL expression in human and mouse samples were measured with primer and probe sequences for BCR-ABL (B3A2 or B2A2), as previously described^46. […]
K562, HUVEC, normal and CML CD34+CD38− cells were cultured and incubated with miR126 SmartFlare RNA probe (EMD Millipore) for 16 h. […] Nuclei were counterstained with DAPI and the images were analyzed using a confocal microscope (Carl Zeiss).

CML LT-HSCs = assay: NIL treatment of miR-126flox/wt/Tie2+ or Tie2− mice transplanted with CML LT-HSCs; type: in vivo, mouse; conditions: NIL 50 mg/kg daily oral gavage for 3 weeks
Protocol: Next, we sorted CML LT-HSCs from induced CD45.1/CD45.2 SCLtTA/BCR-ABL mice and transplanted them into CD45.2 miR-126^flox/wt/Tie2+ (heterozygous miR-126 KO allele in ECs) or Tie2− (WT miR-126 allele in ECs) mice. After confirming CML development, we treated the mice with NIL (50 mg/kg, daily by oral gavage) or vehicle for 3 weeks.
Animal studies. Inducible transgenic SCLtTA/BCR-ABL mice in the FVB/N background^37,38 were backcrossed to the B6 background (CD45.2) for 10 generations. Transgenic BCR-ABL mice were maintained on tetracycline water at 0.5 g/L. Withdrawal of tetracycline results in expression of BCR-ABL and generation of a CML-like disease in these mice^37,38. Unless otherwise indicated, BCR-ABL expression was induced for 2-3 weeks by tetracycline withdrawal in 6-8 weeks old male and female mice and then BM cells (from both tibias and femurs) were collected for experiments. SCLtTA/BCR-ABL mice (CD45.2, B6) were also bred with CD45.1 B6 mice to produce CD45.1/CD45.2 SCLtTA/BCR-ABL mice as donors. miR-126^flox/flox mice (B6, from Dr. Kuo, Stanford) were crossed with Mx1-cre, Tie2-cre (both from The Jackson Laboratory) and SCLtTA/BCR-ABL mice (all B6) to obtain the following strains: miR-126^flox/flox/Mx1-cre, SCLtTA/BCR-ABL/miR-126^flox/flox/Mx1-cre, miR-126^flox/wt/Tie2-cre and miR-126^flox/flox/Tie2-cre. […]

human BCR-ABL+K562 cells = assay: NIL treatment of K562 cells: miR-126 staining; type: cell-based; conditions: K562 cells with and without 5 μM NIL
Protocol: K562, HUVEC, normal and CML CD34+CD38− cells were cultured and incubated with miR126 SmartFlare RNA probe (EMD Millipore) for 16 h. […] Cells were then washed in 1× phosphate buffered saline (PBS) and fixed in 4% paraformaldehyde for 3 min. Nuclei were counterstained with DAPI and the images were analyzed using a confocal microscope (Carl Zeiss).

CML LSCs = assay: In vivo treatment of CML mice (SCLtTA/BCR-ABL BM cells transplanted into congenic B6 mice); design: species or system mouse; conditions: CML mice, 3 weeks of treatment, followed 60 days after treatment discontinuation
Protocol: Next, we transplanted BM cells from SCLtTA/BCR-ABL mice (CD45.2) into congenic B6 mice (CD45.1). Following confirmation of CML development at 4 weeks after transplantation, mice were treated as above with scrRNA, inhibitor, scrRNA+NIL, or inhibitor+NIL for 3 weeks.

[2] = CML CD34+ cells, NIL treatment, western blot

Cc1cn(-c2cc(NC(=O)c3ccc(C)c(Nc4nccc(-c5cccnc5)n4)c3)cc(C(F)(F)F)c2)cn1 [NIL, nilotinib]
cell survival (CML CD34+ cells; CML CD34+ cells, NIL treatment): promoted survival | BCL-2 expression (CML CD34+ cells; [2]): increased | MAPK/ERK activation (CML CD34+ cells; [2]): enhanced | SPRED1 phosphorylation [1]: de-phosphorylation | binding and co-localization of SPRED1 with RAN [1]: decreased | formation of RAN/Exp-5/RCC1 complex [1]: increased | mature miR-126 levels [1]: increased | pri- and pre-miR-126 levels [1]: decreased | ratio of pri- and pre-miR-126 to mature miR-126 levels [1]: decreased | fraction of quiescent cells (human CML HSCs; human CML HSCs, 5 μM NIL vs DMSO, cell cycle analysis): increased | SPRED1 levels (human CML HSCs; human CML Lin-CD34+CD38− cells treated with NIL, compared with vehicle alone, QPCR): decreased | miR-126 expression (human CML HSCs; human CML Lin-CD34+CD38− cells, NIL 2 μM or 5 μM, compared with vehicle alone, QPCR and miRNA staining): increased | day of 50 percent survival (CML LT-HSCs; Tie2− mice (WT miR-126 in ECs) transplanted with CML LT-HSCs, untreated Tie2− approx. day 60): ~150 days | survival at day 150 (CML LT-HSCs; miR-126flox/wt/Tie2+ mice (heterozygous miR-126 KO in ECs) transplanted with CML LT-HSCs): all NIL-treated Tie2+ mice were alive | miR-126 expression (human BCR-ABL+K562 cells): increased

5′ G*G*T GCA TCG ATG CAGG*G*G* G*G xxxxx mGmUmA mGmAmA mCmCmG mUmAmC mUmCmG mUmCmA mCmUmU mA 3′ (GGTGCATCGATGCAGGGGGGGUAGAACCGUACUCGUCACUUA; phosphorothioate, 2'-O-methyl, linker; (1)..(2) phosphorothioation; (2)..(3) phosphorothioation; (16)..(17) phosphorothioation; (17)..(18) phosphorothioation; (18)..(19) phosphorothioation; (19)..(20) phosphorothioation; (20)..(21) ((CH2)3)5; (20)..(21) Five C3 carbon chain linkers, ((CH2)3)5; modified_base (21)..(21) gm; modified_base (22)..(22) um; modified_base (23)..(23) 2′-O-Methyladenosine; modified_base (24)..(24) gm; modified_b) [scrRNA, CpG ODN linked to scrambled RNA, control oligonucleotide]
mice that survived (CML LSCs): all of the mice treated with scrRNA alone died of leukemia

O=C(NOC[C@H](O)CO)c1ccc(F)c(F)c1Nc1ccc(I)cc1F [PD0325901]
NIL-induced apoptosis (CML CD34+ cells; CML Lin-CD34+ cells, PD0325901 500 nM in combination with NIL, 72 h): enhanced
